Data published in paper PMC6271825, “Synthesis and Cytotoxic Activity Evaluation of Novel Arylpiperazine Derivatives on Human Prostate Cancer Cell Lines” (Molecules, 2014).

Columns and labels:
Format in all cases: cell-based
RWPE-1 cells = test: CCK-8 in vitro cytotoxicity assay, RWPE-1 normal prostate epithelial cells; details: human prostate epithelial cell line RWPE-1 (normal), CCK-8, 24 h exposure, mean ± SD of three experiments
Description: (§1) The synthesized target compounds 5 to 29 were evaluated for their in vitro cytotoxic activities against the three human prostate cancer cell lines (PC-3, LNCaP, and DU145), and compared with their effects on human prostate epithelial cell line RWPE-1 by CCK-8 assay.
(§2) PC-3 and RWPE-1 cells were cultured in Dulbecco’s modification Eagle’s medium (DMEM, Invitrogen, Carlsbad, CA, USA) supplemented with 10% fetal bovine serum (FBS, Hyclone, Logan, UT, USA), 100 U/mL penicillin and 0.1 mg/mL streptomycin (Invitrogen). DU145 cells were cultured in RPMI1640 media supplemented with 10% fetal bovine serum (FBS, Hyclone), 100 U/mL penicillin and 0.1 mg/mL streptomycin (Invitrogen). LNCaP cells were cultured in F12 media supplemented with 10% fetal bovine serum (FBS, Hyclone), 100 U/mL penicillin and 0.1 mg/mL streptomycin (Invitrogen). The cells were incubated at 37 °C in a humidified atmosphere with 5% CO2.
(§3) Cell proliferation was measured with the Cell Counting Kit-8 (CCK-8) assay kit (Dojindo Corp., Kumamoto, Japan). Cells were harvested during logarithmic growth phase and seeded in 96-well plates at a density of 1 × 10^5 cells/mL, and cultured at 37 °C in a humidified incubator (5% CO2) for 24 h, followed by exposure to various concentrations of compounds tested for 24 h. Subsequently 10 μL of CCK-8 (Dojindo) was added to each well, the cells were then incubated for an additional 1 h at 37 °C to convert WST-8 into formazan. Cell growth inhibition was determined by measuring the absorbance (Abs) at λ = 450 nm using amicroplate reader. Three independent experiments were performed. Cell growth inhibition was calculated according to the following equation: Growth inhibition = (1 − OD of treated cells/OD of control cells) × 100%
(§4) The half maximal inhibitory concentrations (IC50) were obtained from linear regression analysis of the concentration-response curves plotted for each tested compound.

PC-3 cells = test: CCK-8 in vitro cytotoxicity assay, PC-3; details: human prostate cancer cell line PC-3, CCK-8, 24 h exposure, mean ± SD of three experiments
Description: as §1, §2, §3, §4

DU145 cells = test: CCK-8 in vitro cytotoxicity assay, DU145; details: DU-145; human prostate cancer cell line DU145, CCK-8, 24 h exposure, mean ± SD of three experiments
Description: as §1, §2, §3, §4

LNCaP cells = test: CCK-8 in vitro cytotoxicity assay, LNCaP; details: human prostate cancer cell line LNCaP, CCK-8, 24 h exposure, mean ± SD of three experiments
Description: as §1, §2, §3, §4

c1ccc(N2CCN(CCc3ccc(COc4ccc5c(c4)OCO5)cc3)CC2)cc1 [Compound 5, 1-(2-(4-((Benzo[d][1,3]dioxol-5-yloxy)methyl)phenyl)ethyl)-4-phenylpiperazine]
IC50 (RWPE-1 cells): > 50 µM
IC50 (PC-3 cells): > 50 µM
IC50 (DU145 cells): > 50 µM
IC50 (LNCaP cells; Homo sapiens, LNCaP, 24 h): 27.9 ± 1.72 µM

c1ccc(CN2CCN(CCc3ccc(COc4ccc5c(c4)OCO5)cc3)CC2)cc1 [Compound 6, 1-(2-(4-((Benzo[d][1,3]dioxol-5-yloxy)methyl)phenyl)ethyl)-4-benzylpiperazine]
IC50 (RWPE-1 cells): 38.8 ± 0.77 µM
IC50 (PC-3 cells): > 50 µM
IC50 (DU145 cells): 28.9 ± 0.98 µM
IC50 (LNCaP cells; Homo sapiens, LNCaP, 24 h): 27.7 ± 4.17 µM

c1ccc(N2CCN(CCc3ccc(COc4ccc5c(c4)OCO5)cc3)CC2)nc1 [Compound 7, 1-(2-(4-((Benzo[d][1,3]dioxol-5-yloxy)methyl)phenyl)ethyl)-4-(pyridin-2-yl)piperazine]
IC50 (RWPE-1 cells): 41.1 ± 0.54 µM
IC50 (PC-3 cells): > 50 µM
IC50 (DU145 cells): > 50 µM
IC50 (LNCaP cells; Homo sapiens, LNCaP, 24 h): 31.2 ± 0.63 µM

c1cnc(N2CCN(CCc3ccc(COc4ccc5c(c4)OCO5)cc3)CC2)nc1 [Compound 8, 2-(4-(2-(4-((Benzo[d][1,3]dioxol-5-yloxy)methyl)phenyl)ethyl)piperazin-1-yl)pyrimidine]
IC50 (RWPE-1 cells): 31.7 ± 3.14 µM
IC50 (PC-3 cells): > 50 µM
IC50 (DU145 cells): 8.25 ± 0.16 µM
IC50 (LNCaP cells; Homo sapiens, LNCaP, 24 h): 26.6 ± 0.86 µM

Cc1ccccc1N1CCN(CCc2ccc(COc3ccc4c(c3)OCO4)cc2)CC1 [Compound 9, 1-(2-(4-((Benzo[d][1,3]dioxol-5-yloxy)methyl)phenyl)ethyl)-4-o-tolylpiperazine]
IC50 (RWPE-1 cells): 31 ± 1.57 µM
IC50 (PC-3 cells): > 50 µM
IC50 (DU145 cells): > 50 µM
IC50 (LNCaP cells; Homo sapiens, LNCaP, 24 h): < 5 µM
IC50 (LNCaP cells): 3.47 ± 0.36 µM

Cc1ccc(N2CCN(CCc3ccc(COc4ccc5c(c4)OCO5)cc3)CC2)cc1 [Compound 10, 1-(2-(4-((Benzo[d][1,3]dioxol-5-yloxy)methyl)phenyl)ethyl)-4-p-tolylpiperazine]
IC50 (RWPE-1 cells): > 50 µM
IC50 (PC-3 cells): > 50 µM
IC50 (DU145 cells): 47.8 ± 2.02 µM
IC50 (LNCaP cells; Homo sapiens, LNCaP, 24 h): 31.9 ± 0.89 µM

Cc1cccc(N2CCN(CCc3ccc(COc4ccc5c(c4)OCO5)cc3)CC2)c1 [Compound 11, 1-(2-(4-((Benzo[d][1,3]dioxol-5-yloxy)methyl)phenyl)ethyl)-4-m-tolylpiperazine]
IC50 (RWPE-1 cells): > 50 µM
IC50 (PC-3 cells): > 50 µM
IC50 (DU145 cells): > 50 µM
IC50 (LNCaP cells; Homo sapiens, LNCaP, 24 h): > 50 µM

COc1ccccc1N1CCN(CCc2ccc(COc3ccc4c(c3)OCO4)cc2)CC1 [Compound 12, 1-(2-(4-((Benzo[d][1,3]dioxol-5-yloxy)methyl)phenyl)ethyl)-4-(2-methoxyphenyl)piperazine]
IC50 (RWPE-1 cells): > 50 µM
IC50 (PC-3 cells): > 50 µM
IC50 (DU145 cells): > 50 µM
IC50 (LNCaP cells; Homo sapiens, LNCaP, 24 h): 30.7 ± 0.83 µM

COc1ccc(N2CCN(CCc3ccc(COc4ccc5c(c4)OCO5)cc3)CC2)cc1 [Compound 13, 1-(2-(4-((Benzo[d][1,3]dioxol-5-yloxy)methyl)phenyl)ethyl)-4-(4-methoxyphenyl)piperazine]
IC50 (RWPE-1 cells): > 50 µM
IC50 (PC-3 cells): > 50 µM
IC50 (DU145 cells): > 50 µM
IC50 (LNCaP cells; Homo sapiens, LNCaP, 24 h): 28.3 ± 0.49 µM

COc1cccc(N2CCN(CCc3ccc(COc4ccc5c(c4)OCO5)cc3)CC2)c1 [Compound 14, 1-(2-(4-((Benzo[d][1,3]dioxol-5-yloxy)methyl)phenyl)ethyl)-4-(3-methoxyphenyl)piperazine]
IC50 (RWPE-1 cells): 39 ± 0.77 µM
IC50 (PC-3 cells): > 50 µM
IC50 (DU145 cells): > 50 µM
IC50 (LNCaP cells; Homo sapiens, LNCaP, 24 h): > 50 µM

Fc1ccccc1N1CCN(CCc2ccc(COc3ccc4c(c3)OCO4)cc2)CC1 [Compound 15, 1-(2-(4-((Benzo[d][1,3]dioxol-5-yloxy)methyl)phenyl)ethyl)-4-(2-fluorophenyl)piperazine]
IC50 (RWPE-1 cells): 41 ± 0.47 µM
IC50 (PC-3 cells): > 50 µM
IC50 (DU145 cells): > 50 µM

Fc1ccc(N2CCN(CCc3ccc(COc4ccc5c(c4)OCO5)cc3)CC2)cc1 [Compound 16, 1-(2-(4-((Benzo[d][1,3]dioxol-5-yloxy)methyl)phenyl)ethyl)-4-(4-fluorophenyl)piperazine]
IC50 (RWPE-1 cells): > 50 µM
IC50 (PC-3 cells): > 50 µM
IC50 (DU145 cells): > 50 µM
IC50 (LNCaP cells; Homo sapiens, LNCaP, 24 h): 32.5 ± 1.04 µM

Fc1ccc(N2CCN(CCc3ccc(COc4ccc5c(c4)OCO5)cc3)CC2)c(F)c1 [Compound 17, 1-(2-(4-((Benzo[d][1,3]dioxol-5-yloxy)methyl)phenyl)ethyl)-4-(2,4-difluorophenyl)piperazine]
IC50 (RWPE-1 cells): 23.9 ± 0.75 µM
IC50 (PC-3 cells): > 50 µM
IC50 (DU145 cells): 26.8 ± 0.92 µM
IC50 (LNCaP cells; Homo sapiens, LNCaP, 24 h): 26.8 ± 1 µM

N#Cc1ccc(N2CCN(CCc3ccc(COc4ccc5c(c4)OCO5)cc3)CC2)c(F)c1 [Compound 18, 4-(4-(2-(4-((Benzo[d][1,3]dioxol-5-yloxy)methyl)phenyl)ethyl)piperazin-1-yl)-3-fluorobenzonitrile]
IC50 (RWPE-1 cells): > 50 µM
IC50 (PC-3 cells): 26.9 ± 1 µM
IC50 (DU145 cells): > 50 µM
IC50 (LNCaP cells; Homo sapiens, LNCaP, 24 h): 13.1 ± 0.51 µM

Clc1ccccc1N1CCN(CCc2ccc(COc3ccc4c(c3)OCO4)cc2)CC1 [Compound 19, 1-(2-(4-((Benzo[d][1,3]dioxol-5-yloxy)methyl)phenyl)ethyl)-4-(2-chlorophenyl)piperazine]
IC50 (RWPE-1 cells): 29.9 ± 0.8 µM
IC50 (PC-3 cells): > 50 µM
IC50 (DU145 cells): > 50 µM
IC50 (LNCaP cells; Homo sapiens, LNCaP, 24 h): 26.6 ± 0.4 µM

Clc1ccc(N2CCN(CCc3ccc(COc4ccc5c(c4)OCO5)cc3)CC2)cc1 [Compound 20, 1-(2-(4-((Benzo[d][1,3]dioxol-5-yloxy)methyl)phenyl)ethyl)-4-(4-chlorophenyl)piperazine]
IC50 (RWPE-1 cells): > 50 µM
IC50 (PC-3 cells): > 50 µM
IC50 (DU145 cells): > 50 µM
IC50 (LNCaP cells; Homo sapiens, LNCaP, 24 h): > 50 µM

Clc1cccc(N2CCN(CCc3ccc(COc4ccc5c(c4)OCO5)cc3)CC2)c1 [Compound 21, 1-(2-(4-((Benzo[d][1,3]dioxol-5-yloxy)methyl)phenyl)ethyl)-4-(3-chlorophenyl)piperazine]
IC50 (RWPE-1 cells): > 50 µM
IC50 (PC-3 cells): > 50 µM
IC50 (DU145 cells): > 50 µM
IC50 (LNCaP cells; Homo sapiens, LNCaP, 24 h): 25.3 ± 1.55 µM

Clc1cccc(N2CCN(CCc3ccc(COc4ccc5c(c4)OCO5)cc3)CC2)c1Cl [Compound 22, 1-(2-(4-((Benzo[d][1,3]dioxol-5-yloxy)methyl)phenyl)ethyl)-4-(2,3-dichlorophenyl)piperazine]
IC50 (RWPE-1 cells): > 50 µM
IC50 (PC-3 cells): > 50 µM
IC50 (DU145 cells): > 50 µM
IC50 (LNCaP cells; Homo sapiens, LNCaP, 24 h): 39.4 ± 0.54 µM

COc1ccc(Cl)cc1N1CCN(CCc2ccc(COc3ccc4c(c3)OCO4)cc2)CC1 [Compound 23, 1-(2-(4-((Benzo[d][1,3]dioxol-5-yloxy)methyl)phenyl)ethyl)-4-(5-chloro-2-methoxyphenyl)piperazine]
IC50 (RWPE-1 cells): 35.9 ± 1.25 µM
IC50 (PC-3 cells): > 50 µM
IC50 (DU145 cells): > 50 µM
IC50 (LNCaP cells; Homo sapiens, LNCaP, 24 h): 33.2 ± 2.69 µM

Brc1ccc(N2CCN(CCc3ccc(COc4ccc5c(c4)OCO5)cc3)CC2)cc1 [Compound 24, 1-(2-(4-((Benzo[d][1,3]dioxol-5-yloxy)methyl)phenyl)ethyl)-4-(4-bromophenyl)piperazine]
IC50 (RWPE-1 cells): > 50 µM
IC50 (PC-3 cells): > 50 µM
IC50 (DU145 cells): > 50 µM
IC50 (LNCaP cells; Homo sapiens, LNCaP, 24 h): 19.9 ± 1.01 µM

FC(F)(F)c1ccccc1N1CCN(CCc2ccc(COc3ccc4c(c3)OCO4)cc2)CC1 [Compound 25, 1-(2-(4-((Benzo[d][1,3]dioxol-5-yloxy)methyl)phenyl)ethyl)-4-(2-(trifluoromethyl)phenyl)piperazine]
IC50 (RWPE-1 cells): 18.9 ± 3.68 µM
IC50 (PC-3 cells): > 50 µM
IC50 (DU145 cells): > 50 µM
IC50 (LNCaP cells; Homo sapiens, LNCaP, 24 h): 32.96 ± 0.21 µM

FC(F)(F)c1ccc(N2CCN(CCc3ccc(COc4ccc5c(c4)OCO5)cc3)CC2)cc1 [Compound 26, 1-(2-(4-((Benzo[d][1,3]dioxol-5-yloxy)methyl)phenyl)ethyl)-4-(4-(trifluoromethyl)phenyl)piperazine]
IC50 (RWPE-1 cells): > 50 µM
IC50 (PC-3 cells): > 50 µM
IC50 (DU145 cells): > 50 µM
IC50 (LNCaP cells; Homo sapiens, LNCaP, 24 h): 26.8 ± 1.51 µM

CC(=O)c1ccc(N2CCN(CCc3ccc(COc4ccc5c(c4)OCO5)cc3)CC2)cc1 [Compound 27, 1-(4-(4-(2-(4-((Benzo[d][1,3]dioxol-5-yloxy)methyl)phenyl)ethyl)piperazin-1-yl)phenyl)ethanone]
IC50 (RWPE-1 cells): 26.8 ± 3.01 µM
IC50 (PC-3 cells): 24.9 ± 0.68 µM
IC50 (DU145 cells): > 50 µM
IC50 (LNCaP cells; Homo sapiens, LNCaP, 24 h): > 50 µM

c1ccc(C2CCN(CCc3ccc(COc4ccc5c(c4)OCO5)cc3)CC2)cc1 [Compound 28, 1-(2-(4-((Benzo[d][1,3]dioxol-5-yloxy)methyl)phenyl)ethyl)-4-phenylpiperidine]
IC50 (RWPE-1 cells): 28.5 ± 2.18 µM
IC50 (PC-3 cells): > 50 µM
IC50 (DU145 cells): 24.7 ± 2.22 µM
IC50 (LNCaP cells; Homo sapiens, LNCaP, 24 h): 18.2 ± 1.88 µM

OC1(c2ccccc2)CCN(CCc2ccc(COc3ccc4c(c3)OCO4)cc2)CC1 [Compound 29, 1-(2-(4-((Benzo[d][1,3]dioxol-5-yloxy)methyl)phenyl)ethyl)-4-phenylpiperidin-4-ol]
IC50 (RWPE-1 cells): 19.73 ± 0.01 µM
IC50 (PC-3 cells): > 50 µM
IC50 (DU145 cells): 38.2 ± 2.45 µM
IC50 (LNCaP cells; Homo sapiens, LNCaP, 24 h): 43 ± 7.58 µM

COc1ccccc1N1CCN(CC(O)COc2cccc3ccccc23)CC1 (centres unmarked) [naftopidil, reference compound]
IC50 (RWPE-1 cells): > 50 µM
IC50 (PC-3 cells): 42.1 ± 0.79 µM
IC50 (DU145 cells): 34.58 ± 0.31 µM
IC50 (LNCaP cells; Homo sapiens, LNCaP, 24 h): 22.4 ± 0.61 µM
